Data published in paper PMC12692861, “Biotin-Linked Ursolic Acid Conjugates as Selective Anticancer Agents and Target-Identification Tools for Cancer Therapy” (Molecules, 2025).

Tests used:
Test in all cases: Streptavidin pulldown proteomics (LC-MS/MS), MB49 cells
Format in all cases: binding, murine
Settings in all cases: MB-49, 50 µM
[1] = molecular target: Rab-like protein 6 (RABL6) (Mus musculus, UniProt Q5U3K5)
Protocol: (§1) We used proteomics to identify potential molecular targets of 5c. A pulldown assay with streptavidin-agarose-coated magnetic beads was performed. Briefly, 5637 and MB49 cells were incubated with 50 µM 5c for 10 min and 1 h. After incubation, the cells were rinsed three times with cold phosphate-buffered saline (PBS), and cell lysates were prepared and clarified by centrifugation to remove cellular debris, including nuclei. The clarified lysates were incubated with streptavidin-coated magnetic beads to selectively bind biotinylated contents. Bound proteins were separated from unbound proteins through thorough bead washing. Proteins attached to the beads were eluted and analyzed on an Orbitrap Fusion Tribrid mass spectrometer (Thermo Scientific, New York, NY, USA) coupled with an Ultimate 3000 nano-UPLC system. Samples were trapped on a PepMap100 C18 trap column (5 µm, 0.3 × 5 mm) and separated on a PepMap RSLC C18 column (2 µm, 75 µm × 150 mm) using a gradient from 2 to 40% acetonitrile with 0.1% formic acid over 120 min at […] and 40 °C. MS data were acquired in positive mode using data-dependent acquisition (DDA), with precursor scans at 120,000 FWHM (400–2000 m/z), and MS/MS scans in top-speed mode (3 s cycle) using HCD fragmentation (NCE 32%). Proteins were identified and quantified based on peptide spectral matches (PSMs), and fold enrichment compared to controls was calculated to evaluate interaction strength.
(§2) The 5637 and MB49 cells were cultured and treated with higher concentrations of 5c (50 µM) for short period of times (10 min & 60 min) followed by whole cell lysis (WCL) preparation of both treated and untreated cells using modified RIPA buffer [NaCl (100mM), TrisCl (20mM, pH 7.4), EDTA (10 mM), TritonX-100 (0.5%), Glycerol (5%), Protease inhibitor cocktail (1x)] with gentle continuous rotation. The protein content of each WCL was estimated using Pierce™ BCA Protein Assay kit (Thermo-Scientific # 23225). The 100 µL of resuspended Dynabeads™ MyOne™ Streptavidin C1 (Invitrogen # 65001) were washed with PBST (PBS with 0.01% Tween™20) in a magnet stand as recommended in the manufacturer’s instructions. The washed beads were incubated with 200 µg of each WCL in separate tubes at room temperature for 2 h in a gentle end-over-end mixing. After incubation, beads were washed 3–5 times with PBST (0.01% Tween-20) on a magnetic stand and beads were decanted by after spinning and magnetization. The samples were stored at −80 °C till further analysis using LC-MS/MS by the Proteomics and Mass Spectrometry Core Laboratory of Augusta University.

[2] = molecular target: T-complex protein 1 subunit theta (Mus musculus, UniProt P42932)
Protocol: as §1, §2

[3] = molecular target: Histone H2A type 2-C (HIST2H2AC) (Mus musculus, UniProt Q64523)
Protocol: as §1, §2

[4] = molecular target: Elongation factor 2 (eEF2) (Mus musculus, UniProt P58252)
Protocol: as §1, §2

Filamin-A (FLNA) = Filamin-A (FLNA) (Mus musculus, UniProt Q8BTM8)
Sequence of Filamin-A (FLNA) (Q8BTM8 whole entry): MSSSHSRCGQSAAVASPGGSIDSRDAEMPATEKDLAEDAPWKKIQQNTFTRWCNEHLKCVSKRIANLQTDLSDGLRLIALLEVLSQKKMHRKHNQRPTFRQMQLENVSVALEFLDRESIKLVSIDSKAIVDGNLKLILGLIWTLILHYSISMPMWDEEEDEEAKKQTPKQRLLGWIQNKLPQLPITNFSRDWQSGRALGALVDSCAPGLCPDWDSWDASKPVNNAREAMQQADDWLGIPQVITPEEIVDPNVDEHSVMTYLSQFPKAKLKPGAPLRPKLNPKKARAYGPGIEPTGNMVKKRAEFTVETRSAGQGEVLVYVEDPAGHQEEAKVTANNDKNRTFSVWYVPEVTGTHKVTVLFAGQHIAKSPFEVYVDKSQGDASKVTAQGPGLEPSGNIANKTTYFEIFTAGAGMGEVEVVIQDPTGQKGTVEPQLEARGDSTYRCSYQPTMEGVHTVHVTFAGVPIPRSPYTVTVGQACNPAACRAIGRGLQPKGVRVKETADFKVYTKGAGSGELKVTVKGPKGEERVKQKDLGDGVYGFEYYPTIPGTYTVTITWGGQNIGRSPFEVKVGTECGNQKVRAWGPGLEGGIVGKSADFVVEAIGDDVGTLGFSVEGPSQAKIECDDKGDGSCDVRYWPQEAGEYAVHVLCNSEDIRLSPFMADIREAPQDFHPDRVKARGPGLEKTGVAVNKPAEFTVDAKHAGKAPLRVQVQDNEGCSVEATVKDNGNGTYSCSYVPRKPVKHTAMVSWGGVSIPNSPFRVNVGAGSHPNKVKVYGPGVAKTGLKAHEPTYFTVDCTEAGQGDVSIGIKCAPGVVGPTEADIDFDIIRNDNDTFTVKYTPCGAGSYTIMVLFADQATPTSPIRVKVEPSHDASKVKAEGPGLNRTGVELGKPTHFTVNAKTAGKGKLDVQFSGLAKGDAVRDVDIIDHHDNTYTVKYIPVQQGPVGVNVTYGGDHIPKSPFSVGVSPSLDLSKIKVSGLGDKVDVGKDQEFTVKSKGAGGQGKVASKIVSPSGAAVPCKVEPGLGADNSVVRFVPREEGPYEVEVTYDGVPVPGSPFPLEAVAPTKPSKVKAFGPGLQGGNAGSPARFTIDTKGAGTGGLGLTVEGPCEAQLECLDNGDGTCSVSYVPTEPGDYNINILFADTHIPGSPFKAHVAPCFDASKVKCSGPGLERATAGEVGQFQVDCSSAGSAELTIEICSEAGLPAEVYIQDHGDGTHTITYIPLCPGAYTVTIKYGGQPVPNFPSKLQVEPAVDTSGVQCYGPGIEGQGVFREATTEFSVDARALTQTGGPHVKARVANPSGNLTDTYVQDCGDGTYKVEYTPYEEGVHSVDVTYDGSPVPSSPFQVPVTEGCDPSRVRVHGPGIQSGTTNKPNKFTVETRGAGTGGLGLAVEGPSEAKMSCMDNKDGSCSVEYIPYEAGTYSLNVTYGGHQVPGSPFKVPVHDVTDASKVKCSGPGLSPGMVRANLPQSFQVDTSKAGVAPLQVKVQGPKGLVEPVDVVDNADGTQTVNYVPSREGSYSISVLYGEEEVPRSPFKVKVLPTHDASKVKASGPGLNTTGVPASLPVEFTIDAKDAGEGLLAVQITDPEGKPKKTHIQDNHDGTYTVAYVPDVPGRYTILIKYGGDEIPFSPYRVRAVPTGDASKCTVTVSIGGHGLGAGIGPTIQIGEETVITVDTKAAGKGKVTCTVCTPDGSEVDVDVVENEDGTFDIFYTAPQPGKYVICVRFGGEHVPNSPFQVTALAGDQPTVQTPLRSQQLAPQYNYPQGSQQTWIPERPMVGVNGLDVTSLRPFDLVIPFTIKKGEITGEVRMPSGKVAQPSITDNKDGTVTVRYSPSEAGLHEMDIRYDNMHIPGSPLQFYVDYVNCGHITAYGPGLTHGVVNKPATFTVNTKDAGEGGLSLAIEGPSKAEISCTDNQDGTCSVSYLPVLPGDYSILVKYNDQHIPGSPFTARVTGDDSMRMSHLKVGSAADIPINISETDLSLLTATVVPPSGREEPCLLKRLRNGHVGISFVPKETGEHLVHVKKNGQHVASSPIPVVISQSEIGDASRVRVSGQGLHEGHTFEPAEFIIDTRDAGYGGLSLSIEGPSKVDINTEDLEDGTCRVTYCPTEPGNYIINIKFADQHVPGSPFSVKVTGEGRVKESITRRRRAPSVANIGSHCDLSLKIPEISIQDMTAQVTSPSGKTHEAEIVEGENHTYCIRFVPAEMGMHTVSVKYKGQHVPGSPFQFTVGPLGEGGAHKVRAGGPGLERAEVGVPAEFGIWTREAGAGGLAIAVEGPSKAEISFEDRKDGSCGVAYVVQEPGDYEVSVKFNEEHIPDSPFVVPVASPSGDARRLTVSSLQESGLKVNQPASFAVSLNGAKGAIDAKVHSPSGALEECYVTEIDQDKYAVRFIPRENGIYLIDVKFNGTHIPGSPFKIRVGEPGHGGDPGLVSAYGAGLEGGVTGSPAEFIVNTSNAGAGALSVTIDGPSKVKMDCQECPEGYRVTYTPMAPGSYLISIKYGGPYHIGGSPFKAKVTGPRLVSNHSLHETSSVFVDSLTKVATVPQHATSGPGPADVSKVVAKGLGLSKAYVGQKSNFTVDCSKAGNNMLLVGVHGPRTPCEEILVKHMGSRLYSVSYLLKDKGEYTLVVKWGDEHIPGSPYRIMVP
Protocol: as §1, §2

DNA topoisomerase = test system: DNA topoisomerase
Protocol: as §1, §2

ATP synthase subunit O = ATP synthase subunit O (Mus musculus, UniProt Q9DB20)
Protocol: as §1, §2

[5] = molecular target: Elongation factor 1-delta (EF1δ) (Mus musculus, UniProt P57776)
Protocol: as §1, §2

Histone H2B type 1-M = Histone H2B type 1-M (Mus musculus, UniProt P10854)
Protocol: as §1, §2

[6] = molecular target: ATP synthase subunit alpha (Mus musculus, UniProt Q03265)
Sequence of ATP synthase subunit alpha (Q03265 44-553): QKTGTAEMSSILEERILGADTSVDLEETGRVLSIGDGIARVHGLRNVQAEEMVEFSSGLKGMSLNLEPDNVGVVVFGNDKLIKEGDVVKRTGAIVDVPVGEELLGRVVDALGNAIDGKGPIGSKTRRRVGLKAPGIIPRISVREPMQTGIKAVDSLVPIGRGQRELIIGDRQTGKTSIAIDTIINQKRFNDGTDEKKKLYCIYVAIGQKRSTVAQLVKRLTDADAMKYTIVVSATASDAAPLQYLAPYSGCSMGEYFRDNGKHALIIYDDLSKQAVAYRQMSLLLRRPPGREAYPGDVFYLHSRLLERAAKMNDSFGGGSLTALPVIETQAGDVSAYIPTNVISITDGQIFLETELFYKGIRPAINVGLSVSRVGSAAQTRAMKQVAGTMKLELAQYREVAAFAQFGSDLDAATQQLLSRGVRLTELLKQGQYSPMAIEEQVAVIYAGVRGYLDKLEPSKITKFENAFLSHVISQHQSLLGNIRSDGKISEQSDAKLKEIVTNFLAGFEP
Sequence of ATP synthase subunit alpha (P56480 47-529 partner): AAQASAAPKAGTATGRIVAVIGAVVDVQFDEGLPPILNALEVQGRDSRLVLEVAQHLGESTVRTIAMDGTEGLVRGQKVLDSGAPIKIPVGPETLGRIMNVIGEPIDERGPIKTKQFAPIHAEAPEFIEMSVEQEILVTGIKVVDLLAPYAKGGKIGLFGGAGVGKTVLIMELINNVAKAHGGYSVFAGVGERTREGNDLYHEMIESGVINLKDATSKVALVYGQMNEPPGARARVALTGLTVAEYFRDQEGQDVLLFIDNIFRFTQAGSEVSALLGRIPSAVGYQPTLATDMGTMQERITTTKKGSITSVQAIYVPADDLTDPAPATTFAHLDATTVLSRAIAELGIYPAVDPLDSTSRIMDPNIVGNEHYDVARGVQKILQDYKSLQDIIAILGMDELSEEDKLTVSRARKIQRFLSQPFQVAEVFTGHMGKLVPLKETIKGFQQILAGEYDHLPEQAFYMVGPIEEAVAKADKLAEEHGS
Sequence of ATP synthase subunit alpha (Q91VR2 26-298 partner): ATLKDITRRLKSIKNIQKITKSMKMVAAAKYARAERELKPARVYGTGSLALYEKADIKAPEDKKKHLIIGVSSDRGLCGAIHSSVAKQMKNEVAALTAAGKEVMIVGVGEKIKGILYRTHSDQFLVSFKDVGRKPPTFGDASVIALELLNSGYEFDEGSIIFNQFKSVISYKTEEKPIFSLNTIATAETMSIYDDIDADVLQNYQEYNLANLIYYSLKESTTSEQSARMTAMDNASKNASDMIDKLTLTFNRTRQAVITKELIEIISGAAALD
Protocol: as §1, §2

[7] = test system: Splicing factor U2AF 65 kDa subunit (U2AF65)
Protocol: as §1, §2

[8] = molecular target: Ras GTPase-activating-like protein IQGAP1 (Mus musculus, UniProt Q9JKF1)
Protocol: as §1, §2

[9] = test system: Eukaryotic translation initiation factor 2 (eIF2)
Protocol: as §1, §2

HSP 90-beta (HSP90β) = HSP 90-beta (HSP90β) (Mus musculus, UniProt P11499)
Sequence of HSP 90-beta (HSP90β) (P11499 whole entry): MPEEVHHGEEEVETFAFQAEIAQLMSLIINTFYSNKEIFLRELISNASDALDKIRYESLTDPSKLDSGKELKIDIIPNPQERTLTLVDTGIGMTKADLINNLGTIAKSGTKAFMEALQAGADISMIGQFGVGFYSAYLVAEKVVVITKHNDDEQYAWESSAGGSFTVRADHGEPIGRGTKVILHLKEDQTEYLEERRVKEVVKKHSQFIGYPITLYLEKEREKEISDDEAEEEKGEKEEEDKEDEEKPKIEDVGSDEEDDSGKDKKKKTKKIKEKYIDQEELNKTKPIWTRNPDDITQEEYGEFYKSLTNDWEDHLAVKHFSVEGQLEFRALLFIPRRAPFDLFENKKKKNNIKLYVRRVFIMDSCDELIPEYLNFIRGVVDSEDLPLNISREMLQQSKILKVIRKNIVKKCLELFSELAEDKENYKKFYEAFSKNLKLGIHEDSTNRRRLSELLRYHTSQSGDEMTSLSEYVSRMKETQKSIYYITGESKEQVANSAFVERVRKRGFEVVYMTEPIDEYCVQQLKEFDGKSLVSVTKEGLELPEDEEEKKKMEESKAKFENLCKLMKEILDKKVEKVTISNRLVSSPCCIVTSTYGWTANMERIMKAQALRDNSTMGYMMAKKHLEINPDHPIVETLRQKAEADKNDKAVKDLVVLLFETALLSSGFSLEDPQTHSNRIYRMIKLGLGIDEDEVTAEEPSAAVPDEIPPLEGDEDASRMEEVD
Protocol: as §1, §2

[10] = molecular target: Ribosomal L1 domain-containing protein 1 (RSL1D1) (Mus musculus, UniProt Q8BVY0)
Sequence of Ribosomal L1 domain-containing protein 1 (RSL1D1) (Q8BVY0 whole entry, the tested form may be a part): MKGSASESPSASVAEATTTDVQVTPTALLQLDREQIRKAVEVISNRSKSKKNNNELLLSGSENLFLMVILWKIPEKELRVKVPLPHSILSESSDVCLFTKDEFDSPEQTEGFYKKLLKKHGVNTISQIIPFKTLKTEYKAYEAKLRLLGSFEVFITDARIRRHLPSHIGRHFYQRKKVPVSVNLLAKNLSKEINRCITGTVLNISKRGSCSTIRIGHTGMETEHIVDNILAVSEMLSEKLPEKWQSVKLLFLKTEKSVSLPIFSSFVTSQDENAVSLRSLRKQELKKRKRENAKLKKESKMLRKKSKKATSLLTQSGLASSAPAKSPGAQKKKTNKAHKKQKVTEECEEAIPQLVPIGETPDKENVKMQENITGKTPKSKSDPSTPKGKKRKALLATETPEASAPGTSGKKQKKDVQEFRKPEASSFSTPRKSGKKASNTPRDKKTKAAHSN
Protocol: as §1, §2

[11] = molecular target: Elongation factor 1-beta (EF1β) (Mus musculus, UniProt O70251)
Protocol: as §1, §2

[12] = molecular target: Eukaryotic translation initiation factor 5B (eIF5B) (Mus musculus, UniProt Q05D44)
Protocol: as §1, §2

Histone H4 = Histone H4 (Mus musculus, UniProt P62806)
Protocol: as §1, §2

CC1CCC2(C(=O)OCCCCOC(=O)CCCCC3SCC4NC(=O)NC43)CCC3(C)C(=CCC4C5(C)CCC(O)C(C)(C)C5CCC43C)C2C1C [Compound 5c, 4-((5-((3aS,4S,6aR)-2-Oxohexahydro-1H-thieno [3,4-d]imidazol-4-yl)pentanoyl)oxy) butyl 3-hydroxy-urs-12-en-28-oate]
Fold Change 10 min/Ctrl [1]: 3
Fold Change 1 h/Ctrl [1]: 5.5
Fold Change 10 min/Ctrl [2]: 2
Fold Change 1 h/Ctrl [2]: 3
Fold Change 10 min/Ctrl [3]: 1.58
Fold Change 1 h/Ctrl [3]: 1.27
Fold Change 10 min/Ctrl [4]: 3
Fold Change 1 h/Ctrl [4]: 2
Fold Change 10 min/Ctrl (Filamin-A (FLNA)): 3.33
Fold Change 1 h/Ctrl (Filamin-A (FLNA)): 4
Fold Change 10 min/Ctrl (DNA topoisomerase): 1
Fold Change 1 h/Ctrl (DNA topoisomerase): 1.75
Fold Change 10 min/Ctrl (ATP synthase subunit O): 4
Fold Change 1 h/Ctrl (ATP synthase subunit O): 5
Fold Change 10 min/Ctrl [5]: 1.4
Fold Change 1 h/Ctrl [5]: 2
Fold Change 10 min/Ctrl (Histone H2B type 1-M): 2.04
Fold Change 1 h/Ctrl (Histone H2B type 1-M): 1.81
Fold Change 10 min/Ctrl [6]: 1.26
Fold Change 1 h/Ctrl [6]: 1.26
Fold Change 10 min/Ctrl [7]: 4
Fold Change 1 h/Ctrl [7]: 3
Fold Change 10 min/Ctrl [8]: 1
Fold Change 1 h/Ctrl [8]: 3
Fold Change 10 min/Ctrl [9]: 2
Fold Change 1 h/Ctrl [9]: 0
Fold Change 10 min/Ctrl (HSP 90-beta (HSP90β)): 1.40
Fold Change 1 h/Ctrl (HSP 90-beta (HSP90β)): 1.71
Fold Change 10 min/Ctrl [10]: 1.33
Fold Change 1 h/Ctrl [10]: 1.56
Fold Change 10 min/Ctrl [11]: 5
Fold Change 1 h/Ctrl [11]: 5
Fold Change 10 min/Ctrl [12]: 3
Fold Change 1 h/Ctrl [12]: 2.75
Fold Change 10 min/Ctrl (Histone H4): 1.64
Fold Change 1 h/Ctrl (Histone H4): 1.18
